# Source: ChEMBL document CHEMBL1149537, “Design and synthesis of 1,2-dithiolane derivatives and evaluation of their neuroprotective activity” (Bioorg Med Chem Lett, 2007)
# Tested on: HT-22
# Experiment: Neuroprotective activity against glutamate-induced damage in mouse HT22 cells after 24 hrs
# Type: functional, cell-based
# Details: HT-22, 24 h
row,SMILES,EC50
1,O=C(CCCCC(S)CCS)NCCc1ccc(O)c(O)c1 (stereo not given),> 10 µM
2,COc1ccc(CCn2nnnc2CCCCC2CCSS2)cc1OC (stereo not given),> 10 µM
3,COc1ccc(-c2noc(CCCCC(S)CCS)n2)cc1OC (stereo not given),> 10 µM
4,COc1ccc(-c2nnc(CCCCC3CCSS3)o2)cc1OC (stereo not given),> 10 µM
5,COc1ccc(CCn2nnnc2CCCCC(S)CCS)cc1OC (stereo not given),> 10 µM
6,COc1ccc(-c2csc(CCCCC3CCSS3)n2)cc1OC (stereo not given),> 10 µM
7,COc1ccc(CCc2nnc(CCCCC3CCSS3)o2)cc1OC (stereo not given),> 10 µM
8,Oc1ccc(CCc2nnc(CCCCC3CCSS3)o2)cc1O (stereo not given),4.21 µM
9,COc1ccc(-c2noc(CCCCC3CCSS3)n2)cc1OC (stereo not given),> 10 µM
10,O=C(CCCCC1CCSS1)NCCc1ccc(O)c(O)c1 (stereo not given),> 10 µM
11,Oc1ccc(CCn2nnnc2CCCCC2CCSS2)cc1O (stereo not given),2.99 µM
12,COc1ccc(-c2cn(CCCCCC3CCSS3)nn2)cc1OC (stereo not given),> 10 µM
13,COc1ccc(CCNC(=O)CCCCC2CCSS2)cc1OC (stereo not given),> 10 µM
14,Oc1ccc(-c2noc(CCCCC3CCSS3)n2)cc1O (stereo not given),3.63 µM
15,Oc1ccc(-c2cn(CCCCCC3CCSS3)nn2)cc1O (stereo not given),6.23 µM
